Source: ChEMBL document CHEMBL5465560, “Selectivity Literature for EUbOPEN Chemogenomic Library” (2024)

Tests used:
[1] = target: Mitogen-activated protein kinase 10 (Homo sapiens, UniProt P53779); assay: Selectivity interaction (Upstate Kinase Profiler service (Millipore)) EUB0000056c MAPK10; conditions: at 1 µM
[2] = target: T1, Ephrin type-A receptor 1 (Homo sapiens) (UniProt P21709); conditions: at 10 µM
T1 sequence (whole entry): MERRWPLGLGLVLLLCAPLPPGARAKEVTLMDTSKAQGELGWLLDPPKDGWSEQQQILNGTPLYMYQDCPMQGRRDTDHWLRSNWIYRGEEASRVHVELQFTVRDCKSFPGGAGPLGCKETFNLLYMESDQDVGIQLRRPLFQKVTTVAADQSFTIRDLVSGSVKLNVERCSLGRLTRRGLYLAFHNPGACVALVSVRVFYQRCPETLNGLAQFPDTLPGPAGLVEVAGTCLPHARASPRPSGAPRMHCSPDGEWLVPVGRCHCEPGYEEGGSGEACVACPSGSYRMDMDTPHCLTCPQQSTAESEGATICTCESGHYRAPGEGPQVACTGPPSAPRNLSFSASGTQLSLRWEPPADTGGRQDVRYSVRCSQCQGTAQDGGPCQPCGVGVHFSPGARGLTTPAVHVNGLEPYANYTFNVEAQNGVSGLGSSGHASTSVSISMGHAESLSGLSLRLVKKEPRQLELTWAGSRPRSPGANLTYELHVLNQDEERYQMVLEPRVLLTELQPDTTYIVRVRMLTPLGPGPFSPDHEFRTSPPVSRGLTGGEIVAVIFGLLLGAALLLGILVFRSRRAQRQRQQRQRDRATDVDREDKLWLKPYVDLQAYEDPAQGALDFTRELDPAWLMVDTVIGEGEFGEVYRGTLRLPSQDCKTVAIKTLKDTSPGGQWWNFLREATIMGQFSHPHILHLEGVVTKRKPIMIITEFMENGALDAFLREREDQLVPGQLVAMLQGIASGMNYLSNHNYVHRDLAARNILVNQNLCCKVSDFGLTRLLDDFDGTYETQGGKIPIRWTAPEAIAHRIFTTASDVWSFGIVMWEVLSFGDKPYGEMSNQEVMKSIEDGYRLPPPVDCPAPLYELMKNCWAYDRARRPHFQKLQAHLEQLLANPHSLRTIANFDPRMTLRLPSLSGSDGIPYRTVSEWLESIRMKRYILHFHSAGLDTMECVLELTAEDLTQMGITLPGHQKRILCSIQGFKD

[3] = target: T2, Serine/threonine-protein kinase TAO1 (Homo sapiens) (UniProt Q7L7X3); assay: Selectivity interaction (LanthaScreen Eu Kinase Binding Assay) EUB0001632a TAOK1; conditions: at 10 µM
T2 sequence (whole entry): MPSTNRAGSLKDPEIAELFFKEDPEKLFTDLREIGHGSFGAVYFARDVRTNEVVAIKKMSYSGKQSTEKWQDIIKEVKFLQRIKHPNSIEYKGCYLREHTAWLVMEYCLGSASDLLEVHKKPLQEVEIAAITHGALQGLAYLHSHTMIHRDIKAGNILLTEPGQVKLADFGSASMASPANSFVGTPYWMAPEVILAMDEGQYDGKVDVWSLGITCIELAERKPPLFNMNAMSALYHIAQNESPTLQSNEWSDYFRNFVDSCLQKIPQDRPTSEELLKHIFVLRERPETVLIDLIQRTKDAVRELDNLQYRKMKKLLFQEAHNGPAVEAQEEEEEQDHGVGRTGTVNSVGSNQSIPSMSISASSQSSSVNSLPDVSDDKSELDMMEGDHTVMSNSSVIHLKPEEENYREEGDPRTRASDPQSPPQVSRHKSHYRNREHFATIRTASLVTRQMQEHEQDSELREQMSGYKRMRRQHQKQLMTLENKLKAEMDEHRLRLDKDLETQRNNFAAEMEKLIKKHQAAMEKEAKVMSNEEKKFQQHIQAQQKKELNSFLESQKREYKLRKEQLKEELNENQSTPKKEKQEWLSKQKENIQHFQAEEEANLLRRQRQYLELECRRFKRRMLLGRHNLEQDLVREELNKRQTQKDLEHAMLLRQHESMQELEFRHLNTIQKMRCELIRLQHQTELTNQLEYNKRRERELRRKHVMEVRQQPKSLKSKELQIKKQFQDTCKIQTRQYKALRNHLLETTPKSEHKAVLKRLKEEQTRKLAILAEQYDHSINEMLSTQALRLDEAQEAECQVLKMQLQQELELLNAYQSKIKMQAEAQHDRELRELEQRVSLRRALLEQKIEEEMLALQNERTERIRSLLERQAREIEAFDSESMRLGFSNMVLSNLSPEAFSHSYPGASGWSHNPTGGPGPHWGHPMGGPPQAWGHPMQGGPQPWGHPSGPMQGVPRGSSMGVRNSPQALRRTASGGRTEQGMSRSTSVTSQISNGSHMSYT

[4] = target: cAMP-dependent protein kinase catalytic subunit alpha (Homo sapiens, UniProt P17612); assay: Selectivity interaction (SelectScreen profiling (Invitrogen)) EUB0000607a PRKACA; conditions: at 2 µM
[5] = target: T3, cAMP-dependent protein kinase catalytic subunit PRKX (Homo sapiens) (UniProt P51817); assay: Selectivity interaction (KinomeScan (DiscoverX)) EUB0001049a PRKX; conditions: at 1 µM
T3 sequence (whole entry): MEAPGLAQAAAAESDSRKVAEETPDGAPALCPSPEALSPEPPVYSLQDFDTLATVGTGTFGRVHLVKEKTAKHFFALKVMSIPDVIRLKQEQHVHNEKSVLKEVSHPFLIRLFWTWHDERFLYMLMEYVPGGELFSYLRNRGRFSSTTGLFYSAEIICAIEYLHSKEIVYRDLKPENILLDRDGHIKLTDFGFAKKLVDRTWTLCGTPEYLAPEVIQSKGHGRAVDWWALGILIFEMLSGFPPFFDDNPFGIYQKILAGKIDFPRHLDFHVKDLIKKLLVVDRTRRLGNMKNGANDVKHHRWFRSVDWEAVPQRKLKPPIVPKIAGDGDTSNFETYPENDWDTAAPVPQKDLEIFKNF

[6] = target: Histone-lysine N-methyltransferase, H3 lysine-36 specific (Homo sapiens) (UniProt Q96L73); conditions: at 1 µM
Chain of Histone-lysine N-methyltransferase, H3 lysine-36 specific (Homo sapiens) (Q96L73 whole entry): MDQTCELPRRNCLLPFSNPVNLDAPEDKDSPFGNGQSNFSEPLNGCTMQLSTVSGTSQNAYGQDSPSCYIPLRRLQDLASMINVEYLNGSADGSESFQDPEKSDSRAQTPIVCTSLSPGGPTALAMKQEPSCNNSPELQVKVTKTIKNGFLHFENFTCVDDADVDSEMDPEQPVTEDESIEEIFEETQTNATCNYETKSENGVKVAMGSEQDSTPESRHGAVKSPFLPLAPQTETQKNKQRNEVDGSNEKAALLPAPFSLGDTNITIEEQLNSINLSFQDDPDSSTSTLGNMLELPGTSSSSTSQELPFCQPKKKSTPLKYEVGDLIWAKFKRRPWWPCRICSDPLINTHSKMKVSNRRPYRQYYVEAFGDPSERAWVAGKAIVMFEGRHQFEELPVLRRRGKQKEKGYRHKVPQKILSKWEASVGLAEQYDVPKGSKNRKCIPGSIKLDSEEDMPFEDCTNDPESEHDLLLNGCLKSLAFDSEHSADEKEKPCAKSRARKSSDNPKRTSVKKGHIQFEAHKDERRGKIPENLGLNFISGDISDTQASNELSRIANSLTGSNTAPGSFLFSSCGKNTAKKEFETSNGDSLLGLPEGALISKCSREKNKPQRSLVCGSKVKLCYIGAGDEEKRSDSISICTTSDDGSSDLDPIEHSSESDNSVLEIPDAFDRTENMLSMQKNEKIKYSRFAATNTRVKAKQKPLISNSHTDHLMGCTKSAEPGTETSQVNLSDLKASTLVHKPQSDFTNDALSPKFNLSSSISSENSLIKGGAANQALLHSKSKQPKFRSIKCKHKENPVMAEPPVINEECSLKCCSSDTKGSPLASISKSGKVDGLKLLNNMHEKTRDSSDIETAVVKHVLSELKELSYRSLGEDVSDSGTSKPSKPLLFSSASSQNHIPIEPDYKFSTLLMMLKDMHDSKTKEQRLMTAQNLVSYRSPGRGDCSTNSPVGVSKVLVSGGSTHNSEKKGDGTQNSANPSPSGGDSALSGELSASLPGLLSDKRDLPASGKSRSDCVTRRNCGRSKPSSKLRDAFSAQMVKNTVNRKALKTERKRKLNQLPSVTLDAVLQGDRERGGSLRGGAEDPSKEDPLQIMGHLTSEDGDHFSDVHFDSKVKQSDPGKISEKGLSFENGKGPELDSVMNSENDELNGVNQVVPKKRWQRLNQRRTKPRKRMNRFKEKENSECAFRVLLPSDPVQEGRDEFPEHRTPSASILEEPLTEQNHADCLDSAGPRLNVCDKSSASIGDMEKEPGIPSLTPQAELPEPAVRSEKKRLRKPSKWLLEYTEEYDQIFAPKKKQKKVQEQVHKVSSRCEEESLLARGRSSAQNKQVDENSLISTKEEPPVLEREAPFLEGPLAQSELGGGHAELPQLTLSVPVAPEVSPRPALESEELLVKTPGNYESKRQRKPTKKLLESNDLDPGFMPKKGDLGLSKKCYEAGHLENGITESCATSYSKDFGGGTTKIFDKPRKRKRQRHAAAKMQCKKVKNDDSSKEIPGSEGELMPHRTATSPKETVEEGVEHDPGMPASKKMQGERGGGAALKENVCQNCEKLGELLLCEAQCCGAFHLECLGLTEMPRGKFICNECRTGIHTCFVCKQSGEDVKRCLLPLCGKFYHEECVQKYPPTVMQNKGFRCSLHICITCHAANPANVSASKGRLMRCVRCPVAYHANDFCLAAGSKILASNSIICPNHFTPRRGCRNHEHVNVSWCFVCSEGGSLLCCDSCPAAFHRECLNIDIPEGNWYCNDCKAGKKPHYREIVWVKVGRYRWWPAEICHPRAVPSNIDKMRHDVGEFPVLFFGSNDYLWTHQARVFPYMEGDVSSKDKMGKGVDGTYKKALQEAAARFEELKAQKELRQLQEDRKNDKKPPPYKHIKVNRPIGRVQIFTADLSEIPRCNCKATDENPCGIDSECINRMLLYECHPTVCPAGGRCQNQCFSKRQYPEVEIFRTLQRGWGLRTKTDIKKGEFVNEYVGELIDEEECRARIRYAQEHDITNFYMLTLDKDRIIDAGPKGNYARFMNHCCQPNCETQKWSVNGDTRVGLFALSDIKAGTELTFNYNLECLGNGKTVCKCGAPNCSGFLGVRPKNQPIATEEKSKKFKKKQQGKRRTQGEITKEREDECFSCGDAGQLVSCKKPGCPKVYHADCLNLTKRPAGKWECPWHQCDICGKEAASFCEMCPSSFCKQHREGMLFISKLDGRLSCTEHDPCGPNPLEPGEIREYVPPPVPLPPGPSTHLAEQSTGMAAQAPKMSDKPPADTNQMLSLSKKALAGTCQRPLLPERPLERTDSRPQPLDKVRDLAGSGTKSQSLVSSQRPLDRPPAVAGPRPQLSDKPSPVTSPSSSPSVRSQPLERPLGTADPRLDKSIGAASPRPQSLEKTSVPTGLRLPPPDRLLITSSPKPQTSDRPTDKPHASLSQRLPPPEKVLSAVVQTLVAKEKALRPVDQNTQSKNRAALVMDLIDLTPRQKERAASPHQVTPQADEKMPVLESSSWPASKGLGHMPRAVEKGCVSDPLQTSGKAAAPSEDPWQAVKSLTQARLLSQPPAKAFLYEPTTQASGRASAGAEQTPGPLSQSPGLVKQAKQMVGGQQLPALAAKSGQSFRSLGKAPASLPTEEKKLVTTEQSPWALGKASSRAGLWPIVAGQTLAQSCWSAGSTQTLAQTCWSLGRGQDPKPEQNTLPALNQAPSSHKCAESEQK

[7] = target: Serine/threonine-protein kinase Nek4 (Homo sapiens) (UniProt P51957); assay: Selectivity interaction (KinomeScan (DiscoverX)) EUB0001619a NEK4; conditions: at 1 µM
Chain of Serine/threonine-protein kinase Nek4 (Homo sapiens) (P51957 whole entry, looked up): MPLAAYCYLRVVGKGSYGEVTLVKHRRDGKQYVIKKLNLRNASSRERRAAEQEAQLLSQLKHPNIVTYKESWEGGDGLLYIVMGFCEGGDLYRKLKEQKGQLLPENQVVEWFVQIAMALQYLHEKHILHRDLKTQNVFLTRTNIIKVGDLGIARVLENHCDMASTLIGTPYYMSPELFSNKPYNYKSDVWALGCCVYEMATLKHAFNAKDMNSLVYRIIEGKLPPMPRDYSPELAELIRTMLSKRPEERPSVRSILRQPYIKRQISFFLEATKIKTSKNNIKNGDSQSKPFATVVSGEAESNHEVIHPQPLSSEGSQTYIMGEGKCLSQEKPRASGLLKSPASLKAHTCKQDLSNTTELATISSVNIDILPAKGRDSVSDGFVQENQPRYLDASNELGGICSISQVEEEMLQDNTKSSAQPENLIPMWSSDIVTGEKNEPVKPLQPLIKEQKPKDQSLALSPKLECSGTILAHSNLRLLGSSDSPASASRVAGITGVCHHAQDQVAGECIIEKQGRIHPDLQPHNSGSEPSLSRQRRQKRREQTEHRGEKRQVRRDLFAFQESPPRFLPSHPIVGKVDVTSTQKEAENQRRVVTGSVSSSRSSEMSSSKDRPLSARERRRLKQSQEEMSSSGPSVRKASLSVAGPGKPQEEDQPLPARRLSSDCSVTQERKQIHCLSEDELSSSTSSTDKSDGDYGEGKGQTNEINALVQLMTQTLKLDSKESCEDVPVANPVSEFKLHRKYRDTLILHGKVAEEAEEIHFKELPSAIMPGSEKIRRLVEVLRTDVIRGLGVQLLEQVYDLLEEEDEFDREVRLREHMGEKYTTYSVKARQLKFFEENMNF

Chain of Mitogen-activated protein kinase 10 (P53779 whole entry): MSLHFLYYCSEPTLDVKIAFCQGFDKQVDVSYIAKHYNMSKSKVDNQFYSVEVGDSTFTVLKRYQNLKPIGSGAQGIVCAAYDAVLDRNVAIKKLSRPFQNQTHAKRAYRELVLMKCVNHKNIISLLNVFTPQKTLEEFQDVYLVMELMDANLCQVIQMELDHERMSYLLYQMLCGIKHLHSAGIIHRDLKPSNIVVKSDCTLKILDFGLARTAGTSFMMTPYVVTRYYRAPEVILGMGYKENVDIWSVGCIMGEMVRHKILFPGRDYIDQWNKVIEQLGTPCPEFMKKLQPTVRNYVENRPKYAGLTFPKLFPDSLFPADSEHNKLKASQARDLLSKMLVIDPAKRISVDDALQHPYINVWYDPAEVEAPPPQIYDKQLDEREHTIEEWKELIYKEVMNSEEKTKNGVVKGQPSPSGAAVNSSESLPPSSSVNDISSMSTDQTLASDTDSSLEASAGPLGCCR

SMILES: Cc1ccc(-c2ccc3c(ccc4sc5c(c43)NC[C@@H](C)NC5=O)n2)cn1
- % of inhibition [1]: -5%

SMILES: Cc1cc([C@@H](C)Nc2ccccc2C(=O)O)c2nc(N3CCOCC3)cc(=O)n2c1 [AZD-6482]
- % of control [2]: 100%

SMILES: Cn1cc(-n2cnc3c(NCc4nc5cc(Cl)c(Cl)cc5[nH]4)nc(N4CCOCC4)nc32)cn1
- % of inhibition [3]: 31.8%

SMILES: CNC(=O)Nc1ccc(-c2nc(N3CC4CCC(C3)O4)c3cnn(C4CCC5(CC4)OCCO5)c3n2)cc1
- % of inhibition [4]: -3%

SMILES: COc1cc(Nc2nc(C)cc(-c3cnn4nc(OC)ccc34)n2)cc(C(F)(F)F)c1
- % of control [5]: 87%

SMILES: CNCCN1CCC(c2cc(CN(C)C(=O)c3cccc(Oc4ccccc4)c3)ccn2)CC1
- % activity [6]: > 90%

SMILES: N#Cc1cccc(-c2c[nH]c3ncnc(N4CCOCC4)c23)c1
- % of control [7]: 100%
